Tests used:
TBK1 = molecular target: T1, TBK1 (Homo sapiens, UniProt Q9UHD2); experiment: ADP-Glo Kinase Assay, inhibition activity on TBK1; assay type: biochemical
T1 construct: purchased Promega V3991
T1 sequence (Q9UHD2 1-729): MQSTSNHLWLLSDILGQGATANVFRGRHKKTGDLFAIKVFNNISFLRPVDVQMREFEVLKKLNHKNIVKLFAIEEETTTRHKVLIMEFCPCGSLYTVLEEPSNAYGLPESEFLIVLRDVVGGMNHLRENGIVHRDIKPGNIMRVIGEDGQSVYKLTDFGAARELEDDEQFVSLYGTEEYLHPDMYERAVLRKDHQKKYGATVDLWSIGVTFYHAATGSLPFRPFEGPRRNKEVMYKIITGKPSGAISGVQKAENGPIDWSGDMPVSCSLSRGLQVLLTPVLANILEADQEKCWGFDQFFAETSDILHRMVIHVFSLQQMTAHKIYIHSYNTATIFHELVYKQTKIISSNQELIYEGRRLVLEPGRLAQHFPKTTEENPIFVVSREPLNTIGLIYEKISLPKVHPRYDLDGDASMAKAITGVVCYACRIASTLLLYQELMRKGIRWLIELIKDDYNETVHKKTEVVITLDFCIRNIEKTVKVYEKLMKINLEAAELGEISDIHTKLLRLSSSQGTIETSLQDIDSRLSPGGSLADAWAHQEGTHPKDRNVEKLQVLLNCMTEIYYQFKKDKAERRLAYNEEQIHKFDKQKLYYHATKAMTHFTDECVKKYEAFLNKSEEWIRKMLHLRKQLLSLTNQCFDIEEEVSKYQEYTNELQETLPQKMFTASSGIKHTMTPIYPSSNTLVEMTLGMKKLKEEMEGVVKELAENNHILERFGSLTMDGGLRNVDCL
Protocol: (§1) The inhibition activities on TNIK, IKKε and TBK1 were measured by a luminometer, TNIK/IKKε/TBK1 Kinase Enzyme System (Promega, Ca# V4158; Invitrogen, PR8031B, Promega, Ca# V3991) and ADP-Glo Kinase Assay using ADP-Glo™ Kinase Analysis Kit (Promega, Ca# V9101) and a kinase reaction buffer [40 mM Tris(pH 7.5), 20 mM MgCl2, 0.1 mg/mL BSA] in accordance with the manufacturer's protocol.

IKKε = molecular target: T2, IKKε (Homo sapiens, UniProt Q14164); experiment: ADP-Glo Kinase Assay, inhibition activity on IKKε; assay type: biochemical
T2 construct: purchased Invitrogen PR8031B
T2 sequence (Q14164 1-716): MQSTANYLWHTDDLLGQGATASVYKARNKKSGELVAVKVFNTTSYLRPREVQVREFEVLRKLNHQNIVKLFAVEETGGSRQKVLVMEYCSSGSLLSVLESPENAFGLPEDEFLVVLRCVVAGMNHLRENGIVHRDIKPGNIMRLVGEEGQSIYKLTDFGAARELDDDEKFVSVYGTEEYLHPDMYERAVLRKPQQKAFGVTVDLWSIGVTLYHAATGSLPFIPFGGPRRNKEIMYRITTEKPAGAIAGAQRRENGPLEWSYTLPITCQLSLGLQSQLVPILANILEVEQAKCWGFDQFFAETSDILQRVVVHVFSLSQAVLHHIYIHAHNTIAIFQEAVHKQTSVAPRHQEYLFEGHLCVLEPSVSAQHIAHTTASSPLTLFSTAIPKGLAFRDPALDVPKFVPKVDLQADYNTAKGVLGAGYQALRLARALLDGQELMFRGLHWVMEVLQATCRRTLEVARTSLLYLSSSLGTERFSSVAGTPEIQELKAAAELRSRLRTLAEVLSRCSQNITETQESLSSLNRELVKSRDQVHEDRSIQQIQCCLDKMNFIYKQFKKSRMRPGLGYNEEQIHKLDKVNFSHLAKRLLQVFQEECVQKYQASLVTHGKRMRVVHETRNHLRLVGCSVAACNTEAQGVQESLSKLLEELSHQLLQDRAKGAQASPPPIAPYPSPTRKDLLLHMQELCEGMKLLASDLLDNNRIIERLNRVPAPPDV
Protocol: as §1

SMILES	IC50 (TBK1) [µM]	IC50 (IKKε) [µM]
CC(=O)Nc1ccc(-c2ccnc(Nc3cccc(F)c3)n2)c2c1C(=O)NC2 [Example 163, N-(7-(2-((3-fluorophenyl)amino)pyrimidin-4-yl)-3-oxoisoindolin-4-yl) acetamide]	4	> 10
CC(=O)Nc1ccc(-c2ccnc(Nc3ccc(C)cc3)n2)c2c1C(=O)NC2 [Example 165, N-(3-oxo-7-(2-(p-tolylamino)pyrimidin-4-yl)isoindolin-4-yl) acetamide]	> 10	> 10
CN(C)c1ccc(-c2ccnc(Nc3cccc(F)c3)n2)c2c1C(=O)NC2 [Example 267, 7-(Dimethylamino)-4-(2-((3-fluorophenyl)amino)pyrimidin-4-yl)isoindolin-1-one]	3.98	5.51
CCCCN(C)c1ccc(-c2ccnc(Nc3cccc(OC)c3)n2)c2c1C(=O)N(C)C2 [Example 270, 7-(Butyl(methyl)amino)-4-(2-((3-methoxyphenyl)amino)pyrimidin-4-yl)-2-methylisoindolin-1-one]	> 10	> 10

Stronger by IC50 (TBK1), values ahead:

IC50 (TBK1) [µM]	IC50 (IKKε) [µM]	SMILES
0.35	0.83	CC(=O)Nc1ccc(-c2ccnc(Nc3cccc(C)c3)n2)c2c1C(=O)NC2 [Example 164, N-(3-oxo-7-(2-(m-tolylamino)pyrimidin-4-yl)isoindolin-4-yl) acetamide]
0.094	> 10	CCC(=O)Nc1ccc(-c2ccnc(Nc3cccc(OC)c3)n2)c2c1C(=O)NC2 [Example 166, N-(7-(2-((3-methoxyphenyl)amino)pyrimidin-4-yl)-3-oxoisoindolin-4-yl)propionamide]
0.75	1.96	COc1cccc(Nc2nccc(-c3ccc(N(C)C)c4c3CNC4=O)n2)c1 [Example 266, 7-(Dimethylamino)-4-(2-((3-methoxyphenyl)amino)pyrimidin-4-yl)isoindolin-1-one]
0.32	0.88	CCCCNc1ccc(-c2ccnc(Nc3cccc(OC)c3)n2)c2c1C(=O)NC2 [Example 268, 7-(Butylamino)-4-(2-((3-methoxyphenyl)amino)pyrimidin-4-yl)isoindolin-1-one]
2.55	5.97	CCCCN(C)c1ccc(-c2ccnc(Nc3cccc(OC)c3)n2)c2c1C(=O)NC2 [Example 269, 7-(Butyl(methyl)amino)-4-(2-((3-methoxyphenyl)amino)pyrimidin-4-yl)isoindolin-1-one]
